Data from patent publication US20250059183A1, “PYRIDINE[4,3-D]PYRIMIDINE COMPOUND AS TLR7/8 AGONIST” (SHANGHAI VISONPHARMA CO., LTD., priority 2021, published 2025).

Legend:
[1] = target: T1, human TLR7 (Homo sapiens, UniProt Q9NYK1); assay: HEK-Blue hTLR7 SEAP reporter gene agonist assay; format: cell-based; conditions: HEK-Blue hTLR7 cells, 16 to 22 hours incubation
T1 construct: host or cells: HEK-Blue hTLR7 (HEK293-derived reporter cells)
T1 sequence (Q9NYK1 27-1049): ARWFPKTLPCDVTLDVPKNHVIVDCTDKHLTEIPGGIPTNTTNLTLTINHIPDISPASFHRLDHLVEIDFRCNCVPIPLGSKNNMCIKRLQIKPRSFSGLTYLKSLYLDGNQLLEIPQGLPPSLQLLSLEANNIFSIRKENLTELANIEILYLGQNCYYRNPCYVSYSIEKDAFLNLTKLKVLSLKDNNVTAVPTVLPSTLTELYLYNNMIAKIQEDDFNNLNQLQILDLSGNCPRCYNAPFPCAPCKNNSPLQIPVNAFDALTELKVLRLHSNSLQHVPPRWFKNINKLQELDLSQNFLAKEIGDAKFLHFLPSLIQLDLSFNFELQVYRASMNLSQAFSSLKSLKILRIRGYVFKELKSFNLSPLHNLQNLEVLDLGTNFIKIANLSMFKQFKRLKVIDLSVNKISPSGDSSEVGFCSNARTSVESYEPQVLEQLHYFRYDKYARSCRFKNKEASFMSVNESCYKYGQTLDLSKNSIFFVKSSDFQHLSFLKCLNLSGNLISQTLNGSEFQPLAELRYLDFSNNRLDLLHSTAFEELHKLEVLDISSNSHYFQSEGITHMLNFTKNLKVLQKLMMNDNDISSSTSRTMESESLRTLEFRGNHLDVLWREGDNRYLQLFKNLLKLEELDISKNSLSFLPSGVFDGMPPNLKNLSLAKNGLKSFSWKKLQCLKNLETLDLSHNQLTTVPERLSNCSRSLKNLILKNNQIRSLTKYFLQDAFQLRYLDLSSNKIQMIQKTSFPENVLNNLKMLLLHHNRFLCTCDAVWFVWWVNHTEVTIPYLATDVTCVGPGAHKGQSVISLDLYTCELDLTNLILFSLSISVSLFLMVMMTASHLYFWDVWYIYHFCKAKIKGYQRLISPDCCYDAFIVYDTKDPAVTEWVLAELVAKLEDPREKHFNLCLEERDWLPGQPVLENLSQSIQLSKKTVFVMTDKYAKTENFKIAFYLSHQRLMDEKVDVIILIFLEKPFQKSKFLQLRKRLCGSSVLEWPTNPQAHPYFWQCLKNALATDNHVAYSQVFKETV
Outline: (§1)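 HEK-Blue cells stably expressing human TLR7 or TLR8 carry a SEAP reporter driven by a minimal IFN-β promoter fused to 5×NF-κB and AP-1 sites. Compounds at […] final, 16 to 22 h. SEAP in the medium measured with Quanti-blue at OD650, and EC50 derived.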

[2] = target: T2, human TLR8 (Homo sapiens, UniProt Q9NR97); assay: HEK-Blue hTLR8 SEAP reporter gene agonist assay; format: cell-based; conditions: HEK-Blue hTLR8 cells, 16 to 22 hours incubation
T2 construct: host or cells: HEK-Blue hTLR8 (HEK293-derived reporter cells)
T2 sequence (Q9NR97 27-1041): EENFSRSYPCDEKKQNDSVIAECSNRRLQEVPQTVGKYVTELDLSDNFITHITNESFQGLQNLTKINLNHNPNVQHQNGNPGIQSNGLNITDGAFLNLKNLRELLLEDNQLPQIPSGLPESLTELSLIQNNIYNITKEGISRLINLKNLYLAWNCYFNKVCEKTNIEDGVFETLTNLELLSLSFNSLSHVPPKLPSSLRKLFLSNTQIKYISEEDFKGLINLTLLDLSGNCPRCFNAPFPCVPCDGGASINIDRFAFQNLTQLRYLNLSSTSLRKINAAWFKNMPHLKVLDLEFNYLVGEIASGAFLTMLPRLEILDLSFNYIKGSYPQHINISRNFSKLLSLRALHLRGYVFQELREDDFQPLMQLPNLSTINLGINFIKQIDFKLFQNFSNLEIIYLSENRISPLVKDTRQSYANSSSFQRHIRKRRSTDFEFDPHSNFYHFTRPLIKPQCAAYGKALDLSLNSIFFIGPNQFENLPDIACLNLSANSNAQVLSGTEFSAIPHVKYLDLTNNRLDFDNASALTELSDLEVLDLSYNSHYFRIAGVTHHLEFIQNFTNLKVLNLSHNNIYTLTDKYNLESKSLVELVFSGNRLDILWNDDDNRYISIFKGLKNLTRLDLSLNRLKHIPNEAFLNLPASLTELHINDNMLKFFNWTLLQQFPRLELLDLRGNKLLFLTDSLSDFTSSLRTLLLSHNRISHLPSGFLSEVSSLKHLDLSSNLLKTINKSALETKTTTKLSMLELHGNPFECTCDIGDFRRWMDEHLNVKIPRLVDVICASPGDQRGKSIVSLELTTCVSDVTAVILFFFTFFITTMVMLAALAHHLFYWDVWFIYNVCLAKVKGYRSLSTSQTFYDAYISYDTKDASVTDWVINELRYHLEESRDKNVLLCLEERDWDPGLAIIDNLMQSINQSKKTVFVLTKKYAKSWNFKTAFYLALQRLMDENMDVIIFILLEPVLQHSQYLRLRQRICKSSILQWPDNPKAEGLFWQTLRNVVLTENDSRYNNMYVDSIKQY
Outline: as §1

Row | Compound | EC50 [1] | EC50 [2]
1 | CCC[C@@H](CO)Nc1nc(N)nc2ccn(Cc3ccc(CN(C)C)cc3OC)c(=O)c12 [Compound I-195, (S)-2-amino-6-(4-((dimethylamino)methyl)-2-methoxybenzyl)-4-((1-hydroxypentan-2-yl)amino)pyrido[4,3-d]pyrimidin-5(6H)-one] | 31 nM | 1 nM
2 | CCC[C@@H](C)Nc1nc(N)nc2ccn(Cc3ccc(CNC)cc3OC)c(=O)c12 [Compound I-198, (R)-2-amino-6-(2-methoxy-4-((methylamino)methyl)benzyl)-4-(pentan-2-ylamino)pyrido[4,3-d]pyrimidin-5(6H)-one] | 100 nM | 5 nM
3 | CCC[C@@H](CO)Nc1nc(N)nc2ccn(Cc3ccc(C(=O)N4CCN(C)CC4)cc3OC)c(=O)c12 [Compound I-212, (S)-2-amino-4-((1-hydroxypentan-2-yl)amino)-6-(2-methoxy-4-(4-methylpiperazine-1-carbonyl)benzyl)pyrido[4,3-d]pyrimidin-5(6H)-one] | 60 nM | 4 nM
4 | CCC[C@@H](C)Nc1nc(N)nc2ccn(Cc3ccc(CN4CCN(CCN)CC4)cc3OC)c(=O)c12 [Compound I-213, (R)-2-amino-6-(4-((4-(2-aminoethyl)piperazin-1-yl)methyl)-2-methoxybenzyl)-4-(pentan-2-ylamino)pyrido[4,3-d]pyrimidin-5(6H)-one] | 100 nM | 9 nM
5 | CCC[C@@H](CO)Nc1nc(N)nc2ccn(Cc3ccc(CNC)cc3OC)c(=O)c12 [Compound I-214, (S)-2-amino-4-((1-hydroxypentan-2-yl)amino)-6-(2-methoxy-4-((methylamino)methyl)benzyl)pyrido[4,3-d]pyrimidin-5(6H)-one] | 86 nM | 3 nM
6 | CCC[C@@H](C)Nc1nc(N)nc2ccn(Cc3ccc(CN4CCN(CCCO)CC4)cc3OC)c(=O)c12 [Compound I-216, (R)-2-amino-6-(4-((4-(3-hydroxypropyl)piperazin-1-yl)methyl)-2-methoxybenzyl)-4-(pentan-2-ylamino)pyrido[4,3-d]pyrimidin-5(6H)-one] | 63 nM | 40 nM
7 | CCC[C@@H](CO)Nc1nc(N)nc2ccn(Cc3ccc(CN4CCN(CCCCCCN)CC4)cc3OC)c(=O)c12 [Compound I-217, (S)-2-amino-6-(4-((4-(6-aminohexyl)piperazin-1-yl)methyl)-2-methoxybenzyl)-4-((1-h hydroxypentan-2-yl)amino)pyrido[4,3-d]pyrimidin-5(6H)-one] | 100 nM | 35 nM
